Like-named read-outs stand apart in the source and are kept apart here. Blank lines part the entries; values can stand above or below the compound they belong to. Ends that are not written are not given here.
How the values were obtained:
DRB1*0301 = target: T1, DRB1*0301 (Homo sapiens, UniProt P01903+P01911, A100K/A102G/A103R/A169T/F55Y/I96L/K41T/L162R/M171V/P40S/Q125H/Q178H/Q39Y/R42S/S66N/T106N/T262R/W38E/Y61H); test: Class II peptide-binding assay DRB1*0301 (DR3); details: known HLA-DR and DQ restricted epitopes, Table 6
T1 construct: Epstein-Barr virus (EBV) transformed homozygous cell lines were used as sources of human HLA Class II molecules; endogenous in cells; host or cells: MAT (EBV-transformed homozygous B cell line)
T1 sequence (P01903 26-254, other chains not shown): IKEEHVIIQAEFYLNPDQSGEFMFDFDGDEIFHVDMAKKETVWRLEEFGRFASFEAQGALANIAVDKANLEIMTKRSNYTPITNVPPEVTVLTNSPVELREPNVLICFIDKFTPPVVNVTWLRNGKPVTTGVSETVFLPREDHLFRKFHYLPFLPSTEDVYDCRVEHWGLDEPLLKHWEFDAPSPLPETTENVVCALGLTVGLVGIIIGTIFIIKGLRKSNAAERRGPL

DRB1*0401 = target: T2, DRB1*0401 (Homo sapiens, UniProt P01903+P01911, A100K/A169T/F76Y/I96L/K127E/L162R/M171V/N62H/P40V/Q125Y/R42H/S133A/S149N/S66Y/V115G/V209L/W38E); test: Class II peptide-binding assay DRB1*0401 (DR4w4)
T2 construct: Epstein-Barr virus (EBV) transformed homozygous cell lines were used as sources of human HLA Class II molecules; endogenous in cells; host or cells: PREISS (EBV-transformed homozygous B cell line)

DRB1*0701 = target: T3, DRB1*0701 (Homo sapiens, UniProt P01903+P01911, A100R/A102G/A103Q/D57E/D86V/E43K/F76Y/K127E/L162R/M171V/P40G/Q125H/Q99D/R33Q/R42Y/R54Q/S133A/S66F/T210M/V115G/Y107V/Y59L/Y89S); test: Class II peptide-binding assay DRB1*0701 (DR7); details: known HLA-DR and DQ restricted epitopes, Table 6
T3 construct: Epstein-Barr virus (EBV) transformed homozygous cell lines were used as sources of human HLA Class II molecules; endogenous in cells; host or cells: PITOUT (EBV-transformed homozygous B cell line)

DRB1*1101 = target: T4, DRB1*1101 (Homo sapiens, UniProt P01903+P01911, A100R/A169T/A87E/I96F/K41T/L162R/M171V/P40S/Q125H/Q178H/Q39Y/Q99D/R42S/S66Y/T262R/V115G/W38E); test: Class II peptide-binding assay DRB1*1101 (DR5w11)
T4 construct: Epstein-Barr virus (EBV) transformed homozygous cell lines were used as sources of human HLA Class II molecules; endogenous in cells; host or cells: SWEIG (EBV-transformed homozygous B cell line)
T4 sequence (P01903 26-254, other chains not shown): as above

DRB3*0101 = target: T5, DRB3*0101 (Homo sapiens, UniProt P01903+P79483); test: Class II peptide-binding assay DRB3*0101 (DR52a)
T5 construct: expressed in transfected cells; host or cells: transfected fibroblasts TR81.19

DRB4*0101 = target: T6, DRB4*0101 (Homo sapiens, UniProt P01903+P13762, G164S); test: Class II peptide-binding assay DRB4*0101 (DRw53)
T6 construct: expressed in transfected cells; host or cells: transfected fibroblasts L257.6

DRB5*0101 = target: T7, DRB5*0101 (Homo sapiens, UniProt P01903+Q30154); test: Class II peptide-binding assay DRB5*0101 (DR2w2a)
T7 construct: Epstein-Barr virus (EBV) transformed homozygous cell lines were used as sources of human HLA Class II molecules; endogenous in cells; host or cells: GM3107 (EBV-transformed homozygous B cell line)

DRB1*0101 = target: T8, DRB1*0101 (Homo sapiens, UniProt P01903+P01911, A100R/D57E/F55L/F60I/F76Y/I96L/L162R/M171V/P40L/Q125E/R42F/V115G/Y59C); test: Class II peptide-binding assay DRB1*0101 (DR1)
T8 construct: Epstein-Barr virus (EBV) transformed homozygous cell lines were used as sources of human HLA Class II molecules; endogenous in cells; host or cells: LG2 (EBV-transformed homozygous B cell line)

DRB1*0405 = target: T9, DRB1*0405 (Homo sapiens, UniProt P01903+P01911, A100R/A169T/D86S/F76Y/I96L/K127E/L162R/M171V/N62H/P40V/Q125Y/R42H/S133A/S149N/S66Y/V115G/V209L/W38E); test: Class II peptide-binding assay DRB1*0405 (DR4w15)
T9 construct: Epstein-Barr virus (EBV) transformed homozygous cell lines were used as sources of human HLA Class II molecules; endogenous in cells; host or cells: KT3 (EBV-transformed homozygous B cell line)

DRB1*1302 = target: T10, DRB1*1302 (Homo sapiens, UniProt P01903+P01911, A100E/A169T/K41T/L162R/M171V/P40S/Q125H/Q178H/Q39Y/Q99D/R42S/S66N/T262R/V115G/W38E/Y61H); test: Class II peptide-binding assay DRB1*1302 (DR6w19)
T10 construct: Epstein-Barr virus (EBV) transformed homozygous cell lines were used as sources of human HLA Class II molecules; endogenous in cells; host or cells: HO301 / H0301 (EBV-transformed homozygous B cell line)
T10 sequence (P01903 26-254, other chains not shown): as above

DRB1*0404 = target: T11, DRB1*0404 (Homo sapiens, UniProt P01903+P01911, A100R/A169T/F76Y/I96L/K127E/L162R/M171V/N62H/P40V/Q125Y/R42H/S133A/S149N/S66Y/V209L/W38E); test: Class II peptide-binding assay DRB1*0404 (DR4w14)
T11 construct: Epstein-Barr virus (EBV) transformed homozygous cell lines were used as sources of human HLA Class II molecules; endogenous in cells; host or cells: BIN40 (EBV-transformed homozygous B cell line)

[1] = known HLA-DR and DQ restricted epitopes, Table 6
[2] = inhibition of radiolabeled probe binding, — read as no appreciable binding

Compound: CC[C@H](C)[C@H](NC(=O)[C@H](Cc1ccc(O)cc1)NC(=O)[C@@H]1CCCN1C(=O)[C@H](CC(=O)O)NC(=O)[C@H](CCC(=O)O)NC(=O)[C@H](CC(C)C)NC(=O)[C@@H](NC(=O)[C@H](C)N)C(C)C)C(=O)N[C@@H](CC(C)C)C(=O)N[C@@H](CC(C)C)C(=O)N[C@H](C(=O)N[C@@H](CO)C(=O)N[C@@H](CO)C(=O)N[C@@H](CCCCN)C(=O)N[C@H](C(=O)N[C@@H](CO)C(=O)O)C(C)C)C(C)C
IC50 (DRB1*0301): > 20000 nM
IC50 (DRB1*0401; [1]): 182 nM
IC50 (DRB1*0701): 73 nM
IC50 (DRB1*1101; [1]): 6670 nM
IC50 (DRB3*0101): 5000 nM
IC50 (DRB4*0101): 4210 nM
IC50 (DRB5*0101): 2500 nM

Compound: CC(C)C[C@H](NC(=O)[C@H](Cc1ccccc1)NC(=O)[C@H](CC(N)=O)NC(=O)[C@H](CO)NC(=O)[C@H](Cc1ccc(O)cc1)NC(=O)[C@@H](NC(=O)[C@H](CCCNC(=N)N)NC(=O)[C@H](Cc1ccccc1)NC(=O)[C@H](C)NC(=O)[C@H](CCCCN)NC(=O)[C@H](CCCNC(=N)N)NC(=O)[C@H](Cc1ccccc1)NC(=O)[C@@H](NC(=O)[C@@H](N)CC(=O)O)[C@@H](C)O)C(C)C)C(=O)N[C@@H](CCCNC(=N)N)C(=O)O
IC50 (DRB1*0101): 68 nM
IC50 (DRB1*0401): 25 nM
IC50 (DRB1*0405): 48 nM
IC50 (DRB1*1101): 5.3 nM
IC50 (DRB1*1302): 123 nM
IC50 (DRB5*0101): 80 nM

Compound: CC(C)C[C@H](NC(=O)[C@H](Cc1ccccc1)NC(=O)[C@H](CC(N)=O)NC(=O)[C@H](CO)NC(=O)[C@H](Cc1ccc(O)cc1)NC(=O)[C@@H](NC(=O)[C@H](CCCNC(=N)N)NC(=O)[C@H](Cc1ccccc1)NC(=O)CNC(=O)[C@H](CCCCN)NC(=O)[C@H](CCCNC(=N)N)NC(=O)[C@H](Cc1ccccc1)NC(=O)[C@@H](NC(=O)[C@@H](N)CC(=O)O)[C@@H](C)O)C(C)C)C(=O)N[C@@H](CCCNC(=N)N)C(=O)O
IC50 (DRB1*0404): 151 nM
IC50 (DRB1*1101): 10 nM

Compound: CC(C)C[C@H](NC(=O)[C@@H](NC(=O)[C@H](CC(C)C)NC(=O)[C@@H](NC(=O)[C@H](CCCCN)NC(=O)[C@H](Cc1ccc(O)cc1)NC(=O)CN)C(C)C)C(C)C)C(=O)N[C@@H](CC(N)=O)C(=O)N1CCC[C@H]1C(=O)N[C@@H](CO)C(=O)N[C@H](C(=O)N[C@@H](C)C(=O)N[C@@H](C)C(=O)N[C@H](C(=O)O)[C@@H](C)O)C(C)C
IC50 (DRB3*0101): > 20000 nM

Compound: LLKDLEEGIQTLMGR
IC50 (DRB4*0101; [2]): 3710 nM

Compound: NHLKTVLEEKLEKED [NHLKTVLEEKLEKED]
IC50 (DRB4*0101; IFNb 15-mer peptides, Table 5D): 1390 nM
IC50 (DRB5*0101; IFNb 15-mer peptides, Table 5D): 6760 nM

Compound: VLEEKLEKEDFTRGK
IC50 (DRB3*0101; IFNb 15-mer peptides, Table 5D): 1390 nM
IC50 (DRB4*0101; IFNb 15-mer peptides, Table 5D): 19100 nM
IC50 (DRB5*0101; IFNb 15-mer peptides, Table 5D): 4610 nM

Compound: YKTIAYDEEARR
IC50 (DRB3*0101): > 20000 nM
IC50 (DRB4*0101): > 20000 nM
IC50 (DRB5*0101): > 20000 nM

Further lines, results first:

IC50 (DRB1*0101; [1]): 2500 nM
IC50 (DRB1*0301): 3180 nM
IC50 (DRB1*0401; [1]): > 20000 nM
IC50 (DRB1*0405; [1]): 1730 nM
IC50 (DRB1*0701): > 20000 nM
IC50 (DRB4*0101; [1]): 1120 nM
Compound: CC[C@H](C)[C@H](NC(=O)[C@H](CCCNC(=N)N)NC(=O)[C@H](Cc1c[nH]c2ccccc12)NC(=O)[C@@H](NC(=O)[C@H](C)NC(=O)CNC(=O)[C@H](Cc1c[nH]c2ccccc12)NC(=O)[C@H](CO)NC(=O)[C@@H](N)CCC(=O)O)C(C)C)C(=O)N[C@@H](CC(=O)O)C(=O)N[C@H](C(=O)N1CCC[C@H]1C(=O)N[C@@H](CC(=O)O)C(=O)N[C@@H](CCCCN)C(=O)N[C@@H](CC(C)C)C(=O)N[C@H](C(=O)NCC(=O)N1CCC[C@H]1C(=O)N[C@@H](Cc1ccccc1)C(=O)N[C@H](C(=O)O)[C@@H](C)O)[C@@H](C)O)[C@@H](C)O

IC50 (DRB3*0101; [2]): 6940 nM
Compound: LLYCFRKDMDKVETF

IC50 (DRB3*0101; IFNb 15-mer peptides, Table 5D): 6780 nM
Compound: LWQLNGRLEYCLKDR

IC50 (DRB3*0101; [2]): 22600 nM
Compound: TSLCFSESIPTPSNR
